The numbers were not newly measured in patent US9604971B2, “Co-crystal of the PAR-1 receptor antagonists vorapaxar and aspirin” (ARALEZ PHARMACEUTICALS TRADING DAC, priority 2013, dated 2017), which cites them from elsewhere.

SMILES strings stand for the structures.

For this data set the following is noted: over time; reverted to the crystalline structure of Form 1.

Consider `CCOC(=O)N[C@@H]1CC[C@@H]2[C@@H](C1)C[C@H]1C(=O)O[C@H](C)[C@H]1[C@H]2/C=C/c1ccc(-c2cccc(F)c2)cn1` [Form 2], for which the “stability of crystalline polymorphic form” value is listed as “unstable”.
